According to publication PMC5524647 (Nature Communications, 2017):
pKd: −log10 of the molar value. Entries after “also recorded” stand apart in the source; their conditions may differ.

Columns and labels:
mAb 4C7 [1] = assay type: binding, mouse; conditions: for pKd: read-out: K D of mAb 4C7 binding
mAb 4C7 [2] = assay type: binding, mouse
mAb 3D11 = assay type: binding, mouse
mAb 9C1-2 = assay type: binding, mouse
mAb 4C7 [3] = assay type: binding, mouse; remark: listed apart in the source
mAb Pp-PS-W = assay type: binding, mouse
[4] = tested on: serum samples from culture-confirmed Thai melioidosis patients; assay type: binding, human

## COC1C(O)C(C)OC(OC2C(O)C(CO)OC(OCCCCCNC(=O)CCCCCNC(=O)CCCCC3SCC4NC(=O)NC43)C2O)C1OC(C)=O (stereo not shown) [BIO-6]
mAb 4C7 [1]
  binding of mAb 4C7 according to sensorgrams: bound
  pKd: 7.66

## COC1C(O)C(C)OC(OC2C(O)C(CO)OC(OCCCCCN)C2O)C1OC(C)=O (stereo not shown) [disaccharide 6]
mAb 4C7 [2]
  reactivity with mAb 4C7 (ELISA): reacted strongly; also recorded: highest recognition
mAb 3D11
  reactivity with mAb 3D11 (ELISA): reacted strongly
mAb 9C1-2
  reactivity with mAb 9C1-2 (ELISA): reacted strongly
mAb 4C7 [3]
  normalized STD effect, O-acetyl group: 97%
  normalized STD effect, glucose proton H3: ~60%
  normalized STD effect, talose H1: 96%
  normalized STD effect, talose H4: 88%
  normalized STD effect, talose proton at position 2: 100%
  normalized STD intensities, glucose protons at positions 4, 5, and 6: < 50%

## COC1C(OC(C)=O)C(C)OC(OC2C(O)C(CO)OC(OCCCCCN)C2O)C1OC(C)=O (stereo not shown) [disaccharide 7]
mAb Pp-PS-W
  reactivity with mAb Pp-PS-W (ELISA): reacted strongly
mAb 4C7 [3]
  STD-NMR effects with mAb 4C7: some STD enhancements were observed; also recorded: Low and not quantifiable STD effects
  STD-NMR signals with mAb 4C7: did not show any signals
[4]
  reactivity of human immune serum samples with the coated antigen: crossreact

## CC(=O)OC1C(OC2C(O)C(CO)OC(OCCCCCNC(=O)CCCCCNC(=O)CCCCC3SCC4NC(=O)NC43)C2O)OC(C)C(O)C1OC1OC(CO)C(O)C(O)C1O (stereo not shown) [BIO-2]
mAb 4C7 [1]
  K D of mAb 4C7 binding: no binding
  binding of mAb 4C7 according to sensorgrams: did not interact

## COC1C(OC(C)=O)C(C)OC(OC2C(O)C(CO)OC(OCCCCCNC(=O)CCCCCNC(=O)CCCCC3SCC4NC(=O)NC43)C2O)C1OC(C)=O (stereo not shown) [BIO-7]
mAb 4C7 [1]
  binding of mAb 4C7 according to sensorgrams: bound
  pKd: 6.92
